{
  "source": "paper PMC11593036",
  "about": "“Comparative Characterization of Three Homologous Glutathione Transferases from the Weed Lolium perenne” (Foods, 2024)",
  "assay_in_all_cases": "steady-state kinetics",
  "assay_type_in_all_cases": "biochemical",
  "key": {"[1]": {"target": "T1, LpGSTU5 (Lolium perenne, UniProt A0A165FYU2)", "T1 construct": "gene GST; full-length cDNA from leaf mRNA in pEXP5-CT/TOPO, E. coli BL21(DE3), GSH-Sepharose; reverse primer carries stop codon (no C-terminal tag); primer-encoded N-terminus MASEKSS", "T1 sequence (A0A165FYU2 1-226)": "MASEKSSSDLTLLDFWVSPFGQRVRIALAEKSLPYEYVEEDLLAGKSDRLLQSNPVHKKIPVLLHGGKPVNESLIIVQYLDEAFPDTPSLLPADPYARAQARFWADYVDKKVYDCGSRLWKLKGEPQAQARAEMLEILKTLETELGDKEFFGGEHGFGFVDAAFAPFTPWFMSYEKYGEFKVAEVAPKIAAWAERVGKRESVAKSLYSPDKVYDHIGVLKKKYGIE", "details": "co-substrate GSH; sigmoid, positive cooperativity between the two H-sites; read-out: Km (mM) (CDNB)", "excerpt": "steady-state kinetics on LpGSTU5"}, "[2]": {"target": "T2, LpGSTU2 (Lolium perenne, UniProt A0A165FYT0)", "T2 construct": "gene GST; full-length cDNA from leaf mRNA in pEXP5-CT/TOPO, E. coli BL21(DE3), GSH-Sepharose; reverse primer carries stop codon (no C-terminal tag); primer-encoded N-terminus MASEKSS", "T2 sequence (A0A165FYT0 1-226)": "T1 sequence (A0A165FYU2 1-226) with S32N, D48E, A93S, S117T", "details": "co-substrate GSH; read-out: Km (mM) (CDNB)", "excerpt": "steady-state kinetics on LpGSTU2"}, "[3]": {"target": "T3, LpGSTU25 (Lolium perenne, UniProt A0A165FYR3, F215L)", "T3 construct": "gene GST; full-length cDNA from leaf mRNA in pEXP5-CT/TOPO, E. coli BL21(DE3), GSH-Sepharose; reverse primer carries stop codon (no C-terminal tag); primer-encoded N-terminus MASEKSS", "T3 sequence (A0A165FYR3 1-226 F215L)": "T1 sequence (A0A165FYU2 1-226) with V56A, L122F, R131K, H215L, K221Q", "details": "co-substrate GSH; read-out: Km (mM) (CDNB)", "excerpt": "(§1) steady-state kinetics on LpGSTU25"}, "[4]": {"target": "T4, LpGSTU25 (Lolium perenne, UniProt A0A165FYR3)", "T4 construct": "gene GST; full-length cDNA from leaf mRNA in pEXP5-CT/TOPO, E. coli BL21(DE3), GSH-Sepharose; reverse primer carries stop codon (no C-terminal tag); primer-encoded N-terminus MASEKSS", "T4 sequence (A0A165FYR3 1-226)": "T1 sequence (A0A165FYU2 1-226) with V56A, L122F, R131K, H215F, K221Q", "details": "co-substrate GSH; read-out: Km (mM) (CDNB)", "excerpt": "as §1"}, "[5]": {"target": "T5, LpGSTU25 (Lolium perenne, UniProt A0A165FYR3, F215R)", "T5 construct": "gene GST; full-length cDNA from leaf mRNA in pEXP5-CT/TOPO, E. coli BL21(DE3), GSH-Sepharose; reverse primer carries stop codon (no C-terminal tag); primer-encoded N-terminus MASEKSS", "T5 sequence (A0A165FYR3 1-226 F215R)": "T1 sequence (A0A165FYU2 1-226) with V56A, L122F, R131K, H215R, K221Q", "details": "co-substrate GSH; read-out: Km (mM) (CDNB)", "excerpt": "as §1"}, "[6]": {"target": "T6, LpGSTU25 (Lolium perenne, UniProt A0A165FYR3, F215K)", "T6 construct": "gene GST; full-length cDNA from leaf mRNA in pEXP5-CT/TOPO, E. coli BL21(DE3), GSH-Sepharose; reverse primer carries stop codon (no C-terminal tag); primer-encoded N-terminus MASEKSS", "T6 sequence (A0A165FYR3 1-226 F215K)": "T1 sequence (A0A165FYU2 1-226) with V56A, L122F, R131K, H215K, K221Q", "details": "co-substrate GSH; read-out: Km (mM) (CDNB)", "excerpt": "as §1"}, "[7]": {"target": "T7, LpGSTU25 (Lolium perenne, UniProt A0A165FYR3, F215H)", "T7 construct": "gene GST; full-length cDNA from leaf mRNA in pEXP5-CT/TOPO, E. coli BL21(DE3), GSH-Sepharose; reverse primer carries stop codon (no C-terminal tag); primer-encoded N-terminus MASEKSS", "T7 sequence (A0A165FYR3 1-226 F215H)": "T1 sequence (A0A165FYU2 1-226) with V56A, L122F, R131K, K221Q", "details": "co-substrate GSH; read-out: Km (mM) (CDNB)", "excerpt": "as §1"}, "[8]": {"target": "T8, LpGSTU25 (Lolium perenne, UniProt A0A165FYR3, F215V)", "T8 construct": "gene GST; full-length cDNA from leaf mRNA in pEXP5-CT/TOPO, E. coli BL21(DE3), GSH-Sepharose; reverse primer carries stop codon (no C-terminal tag); primer-encoded N-terminus MASEKSS", "T8 sequence (A0A165FYR3 1-226 F215V)": "T1 sequence (A0A165FYU2 1-226) with V56A, L122F, R131K, H215V, K221Q", "details": "co-substrate GSH; read-out: Km (mM) (CDNB)", "excerpt": "as §1"}, "[9]": {"target": "T9, LpGSTU25 (Lolium perenne, UniProt A0A165FYR3, F215S)", "T9 construct": "gene GST; full-length cDNA from leaf mRNA in pEXP5-CT/TOPO, E. coli BL21(DE3), GSH-Sepharose; reverse primer carries stop codon (no C-terminal tag); primer-encoded N-terminus MASEKSS", "T9 sequence (A0A165FYR3 1-226 F215S)": "T1 sequence (A0A165FYU2 1-226) with V56A, L122F, R131K, H215S, K221Q", "details": "co-substrate GSH; read-out: Km (mM) (CDNB)", "excerpt": "as §1"}, "[10]": {"target": "T10, LpGSTU25 (Lolium perenne, UniProt A0A165FYR3, F215T)", "T10 construct": "gene GST; full-length cDNA from leaf mRNA in pEXP5-CT/TOPO, E. coli BL21(DE3), GSH-Sepharose; reverse primer carries stop codon (no C-terminal tag); primer-encoded N-terminus MASEKSS", "T10 sequence (A0A165FYR3 1-226 F215T)": "T1 sequence (A0A165FYU2 1-226) with V56A, L122F, R131K, H215T, K221Q", "details": "co-substrate GSH; read-out: Km (mM) (CDNB)", "excerpt": "as §1"}, "[11]": {"target": "T11, LpGSTU25 (Lolium perenne, UniProt A0A165FYR3, F215Y)", "T11 construct": "gene GST; full-length cDNA from leaf mRNA in pEXP5-CT/TOPO, E. coli BL21(DE3), GSH-Sepharose; reverse primer carries stop codon (no C-terminal tag); primer-encoded N-terminus MASEKSS", "T11 sequence (A0A165FYR3 1-226 F215Y)": "T1 sequence (A0A165FYU2 1-226) with V56A, L122F, R131K, H215Y, K221Q", "details": "co-substrate GSH; read-out: Km (mM) (CDNB)", "excerpt": "as §1"}},
  "note": "Residue numbers refer to the chain shown, from its start.",
  "data": [
    {"compound": "O=[N+]([O-])c1ccc(Cl)c([N+](=O)[O-])c1", "note": "[CDNB]", "values": [
      {"measurement": "Km", "setting": "[1]", "value": "0.1 ± 0.04", "unit": "mM"},
      {"measurement": "Km", "setting": "[2]", "value": "0.47 ± 0.03", "unit": "mM"},
      {"measurement": "Km", "setting": "[3]", "value": "0.25 ± 0.02", "unit": "mM"},
      {"measurement": "Km", "setting": "[4]", "value": "0.28 ± 0.03", "unit": "mM"},
      {"measurement": "Km", "setting": "[5]", "value": "0.92 ± 0.32", "unit": "mM"},
      {"measurement": "Km", "setting": "[6]", "value": "0.77 ± 0.07", "unit": "mM"},
      {"measurement": "Km", "setting": "[7]", "value": "0.68 ± 0.08", "unit": "mM"},
      {"measurement": "Km", "setting": "[8]", "value": "0.29 ± 0.02", "unit": "mM"},
      {"measurement": "Km", "setting": "[9]", "value": "0.33 ± 0.03", "unit": "mM"},
      {"measurement": "Km", "setting": "[10]", "value": "0.31 ± 0.03", "unit": "mM"},
      {"measurement": "Km", "setting": "[11]", "value": "0.91 ± 0.12", "unit": "mM"}
    ]}
  ]
}
